According to patent publication US20220313708A1, “COMBINATION PRODUCT CONTAINING LIMONOID COMPOUND AND SGLT-2 INHIBITOR” (ZHEJIANG YANGSHENGTANG INSTITUTE OF NATURAL MEDICATION CO., …, priority 2019, published 2022):

Tested on: mouse type II diabetes model with pancreatic islet damage and obesity
Test: Blood glucose in mouse type II diabetes model with pancreatic islet damage and obesity (STZ + high-fat diet, Example 5, tofogliflozin)
Type: in vivo
Settings: STZ + high-fat diet ICR mice; single agent 0.5 g/kg per day by gavage, two weeks; 1 h after last administration; mean ± SD
Excerpt: In this example, a mouse model of type II diabetes with pancreatic islet damage and obesity was established by multiple modeling ICR mice with a small dose of streptozotocin (STZ), following with continuous high-fat diets (referring to literature: Zhang Jiyuan et al, Study on the effect of three plant extracts on improving glucose and lipid metabolism in type 2 diabetic mice, Food and Machinery, 2016, 32 (12): 142-147). […]
Experimental grouping: 15 male mice were randomly selected as the normal control group, and the remaining mice were subjected to a high-fat diet (high-fat diet formula: cholesterol 1%, egg yolk powder 10%, lard oil 10%, and basic feed 79%, for establishing an obesity mouse model) for consecutive 4 weeks and intraperitoneal injection of STZ at a dose of 35 mg/kg for three consecutive days. After one week, the mice were subject to 24 hours of fasting and water deprivation, their fasting blood glucose was measured, and the mice with a blood glucose level of 15 to 25 mmol/L were selected and undifferentiatedly grouped and used in the experiment, continuously subjected to the high-fat diet, 15 mice in each group, and subjected to blood sampling and detection of indicators after 2 weeks of administration. […]

CCc1ccc(Cc2ccc3c(c2)[C@]2(OC3)O[C@H](CO)[C@@H](O)[C@H](O)[C@H]2O)cc1 [Tofogliflozin, tofogliflozin]
Blood glucose value: 10.1 ± 2.7 mmol/L
